Data: patent US5891622A, “Assessment of oxidative stress in vivo” (Oxford Biomedical Research, Inc., priority 1998, dated 1999)

Tests used:
[1] = aqueous solution, non-enzymatic rearrangement to PGD2 and PGE2; cited from earlier work
anti-8EPGF2 IgG [2] = assay: specificity / cross-reactivity of anti-8EPGF2 IgG (competitive ELISA); type: binding, goat; details: for cross-reaction with anti-8EPGF2 IgG / cross-reaction with anti-8EPGF2 IgG (in words): 8EPGF2 ELISA
Experimental: The IgG bound to the protein G column was eluted with 50 mM glycine-HCl buffer, pH 2.5, and immediately neutralized with 0.5M Tris-HCl, pH 7.6.
High-binding strip well microplates (Labsystems, Inc., Marlboro, Ma.) were coated with protein G-purified IgG suspended in 1M carbonate, pH 9.0, (1 μg/well; 200 μL/well final volume) and then covered with parafilm. After overnight incubation at room temperature, the wells were gently washed five times with tris buffered saline (TBS), pH 7.5, containing 0.1% tween. Non-specific sites were blocked by the addition of 0.2 mL of 5% (w/v) nonfat dry milk in TBS. After 2 hours of incubation at room temperature, the plates were washed three times with TBS-tween. […] Following incubation for 1 hour to permit competitive binding to bound antibody, unbound material was removed by thoroughly washing the wells with TBS-tween and 150 μL of a calorimetric substrate for HRP [3,3',5,5'tetramethylbenzidine (TMB) with hydrogen peroxide] (ELISA Technologies) was added. After incubation of the plate for 20 minutes, the reaction is stopped by addition of 75 μL of 1N H2 SO4, and the absorbance at 450 nm determined using a microtiter plate reader. Under these assay conditions, the amount of color in a well is inversely proportional to the initial concentration of the sample or standard ligand.

anti-8EPGF2 IgG [3] = assay: immunoaffinity column retention of 8EPGF2 on anti-8EPGF2 IgG resin; type: binding, goat; details: up to 10 ng 8EPGF2 applied
Experimental: Reacti-gel was obtained from Pierce Co. and anti-8EPGF2 immunoaffinity column was prepared according to the manufacturer's instruction. […] In each experiment samples were diluted to concentrations lower than the capacity of the column (~0.5 ng/100 μL) prior to application to the column.
Urine samples were applied to immunoaffinity columns, which were then eluted with acetonitrile:water (1:3), followed by acetone:water (90:10). The eluates were then processed and analyzed using the standard GC/MS protocol as described herein above. […] PGF2α has a slightly longer retention time than the [^2 H4 ]-PGF2α (the internal control) shown in the bottom chromatograms of FIG. 4A and 4B, because protium runs faster than deuterium on GC [Wendelborn et al, 1990]. The six peaks with m/z=569 are numbered by the order of elution and the elution time of each peak was divided by the elution time of internal standard, [^2 H4 ]-PGF2α, obtained at m/z=573 to calculate relative elution time of each peak. […] The identity of Peak I, II, III, and VI is not known.

vasoconstriction = details: cited from earlier work

| SMILES | cross-reaction with anti-8EPGF2 IgG (in words) (anti-8EPGF2 IgG [2]) | also measured |
| --- | --- | --- |
| CCCCC[C@H](O)/C=C/[C@@H]1[C@@H](C/C=C\CCCC(=O)O)[C@@H]2C[C@H]1OO2 [prostaglandin H2] |  | t1/2 [1]: ~ 5 minutes |
| CCCCC[C@H](O)/C=C/[C@@H]1[C@@H](C/C=C\CCCC(=O)O)[C@@H](O)C[C@@H]1O [9α-11β-PGF2] |  | cross-reaction with anti-8EPGF2 IgG (anti-8EPGF2 IgG [2]): 4.1% |
| CCCCC/C=C\C/C=C\C/C=C\C/C=C\CCCC(=O)O [arachidonic acid] | did not cross-react |  |
| CCCCC[C@H](O)/C=C/[C@@H]1[C@@H](CC(=O)CCCCC(=O)O)[C@@H](O)C[C@H]1O [6-keto-PGF1α] | did not cross-react |  |
| CCCCC[C@H](O)/C=C/[C@@H]1[C@@H](C/C=C\CCCC(=O)O)[C@H](O)C[C@H]1O [9β-11α-PGF2α] | did not cross-react |  |
| CCCCCC(=O)CC[C@@H]1[C@@H](C/C=C\CCCC(=O)O)[C@@H](O)C[C@H]1O [13-14-dihydro-15-keto-PGF2α] |  | cross-reaction with anti-8EPGF2 IgG (anti-8EPGF2 IgG [2]): 3% |
| CCCCC[C@H](O)/C=C/[C@@H]1[C@@H](C/C=C\CCCC(=O)O)[C@@H](O)C[C@H]1O [PGF2α] | did not cross-react |  |
| CCCCC[C@H](O)/C=C/[C@@H]1[C@H](CCCCCCC(=O)O)[C@H](O)C[C@H]1O [8-epi-PGF1β] | did not cross-react |  |
| CCCCC[C@H](O)CC[C@@H]1[C@@H](CCCCCCC(=O)O)[C@@H](O)C[C@H]1O [13,14-dihydro-PGF1α] | did not cross-react |  |
| CCCCC[C@H](O)/C=C/[C@@H]1[C@@H](CCCCCCC(=O)O)[C@H](O)C[C@H]1O [PGF1β] | did not cross-react |  |
| CCCCCC(=O)CC[C@@H]1[C@@H](CCCCCCC(=O)O)[C@@H](O)C[C@H]1O [13-14-dihydro-15-keto-PGF1α] | did not cross-react |  |
| CCCCC[C@H](O)/C=C/[C@@H]1[C@@H](CCCCCCC(=O)O)[C@H](O)C[C@@H]1O [11β-PGF1β] | did not cross-react |  |
| CCCCC[C@@H](/C=C/[C@@H]1[C@@H](C/C=C\CCCC(=O)O)[C@@H]2C[C@H]1OO2)OO [prostaglandin G2] |  | t1/2 [1]: ~ 5 minutes |
| CCCCC[C@H](O)/C=C/[C@H]1[C@H](O)CC(=O)[C@@H]1C/C=C\CCCC(=O)O [prostaglandin E2] | did not cross-react |  |
| CCCCC[C@H](O)/C=C/[C@@H]1[C@H](CCCCCCC(=O)O)[C@@H](O)C[C@H]1O [8-epi-PGF1α, 5,6-dihydro-8-iso-PGF2α] | did not cross-react |  |
| CCCCC[C@H](O)/C=C/[C@H]1C(=O)C[C@H](O)[C@@H]1C/C=C\CCCC(=O)O [PGD2] | did not cross-react |  |
| CCCCC[C@H](O)/C=C/[C@@H]1[C@H](C/C=C\CCCC(=O)O)[C@@H](O)C[C@H]1O [8EPGF2, 8-epi-prostaglandin F2α] |  | recognition by anti-8EPGF2 antibody (in words) (anti-8EPGF2 IgG [2]; polyclonal antibody, ELISA): recognized; applied 8EPGF2 bound to antibody cross-linked to resin (anti-8EPGF2 IgG [3]): higher than 98%; unbound 8EPGF2 (anti-8EPGF2 IgG [3]; 100 μl resin): lower than 2%; vasoconstrictor property (in words) (vasoconstriction): vasoconstrictor property; effect of high serum concentration on renal arteries (in words) (vasoconstriction; hepatorenal syndrome patients): intense vasoconstriction of renal arteries |
